From patent US8741932B2, “Imidazopyridine derivatives” (Piramal Enterprises Limited, priority 2009, dated 2014)

Columns and labels:
PI3Kα kinase = molecular target: T1, PI3Kα kinase (Homo sapiens, UniProt P42336); assay: Kinase assay (PI3Kα); type: biochemical; details: read-out: IC50 (μM) for PI3K inhibition
T1 construct: purchased Millipore, USA
Description: The kinase reaction was carried out in a 25 μL volume in a 1.5 mL microcentrifuge tube. The reaction mixture consisted of kinase buffer (10 mM Hepes, pH 7.5, 50 mM MgCl2), 20 ng PI3Kα kinase (Millipore, USA), 12.5 μg phosphotidylinositol (PI), 10 μM ATP and 1 μCi ^32γ P […]. […] The reactions were incubated at 30° C. for 20 minutes and were terminated by adding 1:1 mixture of MeOH and CHCl3. The tube contents were mixed on a vortex mixer and centrifuged at 10000 rpm for 2 minutes. 10 μL of the organic (lower) phase was spotted on to a TLC plate (silica, mobile phase: n-propanol and 2 M glacial acetic acid in 65:35 ratio). The plates were dried and exposed to an X-ray film. The bands appearing as a result of ^32γ P incorporation in PI were quantitated using the Quantityl)ne (BioRad, USA) densitometry program. PI-103 (Calbiochem, USA) was used as a standard.

mTOR = molecular target: T2, mTOR (Homo sapiens, UniProt P42345); assay: mTOR activity assay (cell ELISA, Phospho-AKT Ser 473, A2780 cells); type: cell-based; details: for inhibition at 1 µM: read-out: % Inhibition of mTOR activity at 1 μM
T2 construct: endogenous in cells; host or cells: A2780 ovarian cell line (ATCC)
Description: Seed cells (Ovarian cell line A2780, ATCC) were plated in a 96 well microtitre plate at a density of 50,000 cells/cm^2 in appropriate complete cell culture medium. The cells were allowed to adhere for 18-24 hours. The cells were allowed to starve for 24 hours. […] Then the cells were stimulated with 20% FCS for 30 minutes. A typical assay would consist of a set of unstimulated cells, a set of stimulated cells and a set of cells treated with compounds of present invention and a set of cells treated with the stimulator. The medium was discarded. The cells were fixed with 100 μL of 3.7% formaldehyde for 15 minutes. The formaldehyde was discarded by inverting the plate and tapping it on a thick tissue paper layer to remove traces. The cells were washed and permeabilized with 200 μL PBS+Triton-X 100 solution (hereafter referred to as PBS-Triton, containing 0.1% triton-X 100 in 1×PBS) three times, incubating the cells each time for 5 minutes. 100 μL blocking solution (10% FCS in PBS-Triton) was added and incubated for 1 hour at 25° C. The blocking solution was discarded and cells were incubated with the primary antibody in PBS-Triton at a dilution of 1:500 for 1 hour at RT (25° C.). [The primary antibody is Phospho-AKT (Ser 473); Cell Signaling; Cat. No. 9271]. The primary antibody solution was discarded and the cells were washed 3 times with PBS-Triton solution and incubated with the HRP-conjugated secondary antibody in PBS-Triton at a dilution of 1:500 for 1 hour at RT (25° C.). The cells were washed 3 times with PBS-Triton followed by two washes with PBS (to remove traces of triton-X 100). The OPD (o-phenylene diamine dihydrochloride) substrate was prepared for detection of the signal by dissolving one tablet set (two tablets) of SigmaFast OPD (Sigma, Cat No. P9187) in 20 mL distilled water. It should be protected from light. 100 μL OPD solutions was added to the wells and the plate was incubated in the dark for 3-5 minutes (depending upon the development of the color). The reaction was stopped by adding 50 μL 2 N H2SO4. The absorbance was measured at 490 nm. The values were expressed in the treated samples, in terms of percentage or fold decrease in AKT phosphorylation with respect to the induced sample. PI-103 (Calbiochem, USA) was used as a standard.

IL-6 = assay: Human monocyte assay, LPS-stimulated IL-6; type: cell-based; details: Monocyte; human monocytes, 1 μg/ml LPS, 5 hours
How it was run: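 Adherent human PBMC-derived monocytes (2×10^4/well) were cultured 48 h, preincubated 30 min with compound or 0.5% DMSO, then stimulated with 1 μg/ml E. coli LPS for 5 h at 37° C. TNF-α and IL-6 in supernatants were measured by ELISA.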

STAT3 = STAT3 bioassay (Hela Stat3-luc, luciferase); type: cell-based; details: Homo sapiens, Oncostatin M induction
Description: Cells were seeded (Hela Stat3-luc, ATCC P/N 30-2002) in a white 96 well plate (Nunc cat.no.136101) at a density of 20,000cells/well in 179 μl volume per well (DMEM from Sigma containing 10% FCS). The plate was incubated for 24 hours at 37° C./5% CO2. The cells (wells in triplicates) were then treated with 1 μl/well of 200× stock of the desired compound concentration prepared in 100% DMSO. Curcumin was used as a standard or positive control, added 10 μg/ml in triplicate. DMSO was used as medium control (1 μl/well added in triplicates). The plate was incubated at 37° C./5% CO2 for 1 hour. 20 μl/well Oncostatin M (Oncostatin M, Human, Recombinant, E. coli, Cat.No. 496260, 10 μg from Calbiochem) was added to treated wells, induction control (in triplicate) (1000 ng/ml stock prepared in serum free medium to get final concentration 100 ng/ml). The plate was then incubated for 7-8 hours at 37° C./5% CO2 for induction. A typical assay would consist of triplicate of medium control, triplicate of induction control, triplicate of positive/standard control and test compounds at desired concentration in triplicates. For termination Luciferase assay protocol was followed where the culture medium was removed from all the wells.
200 μl well of PBS was added to remove traces of medium and compound. The PBS was discarded. 40 μl/well of 1× lysis buffer was added to all the wells. The plate was incubated at RT for 20 minutes with intermittent shaking. 100 μl/well of LAB reagent was added to all the wells in dark. {LAB reagent for 1 plate=8 ml Luciferase assay buffer (LAB)+1 ml Coenzyme A (Sigma cat no. C3019) (2.1 mg/ml stock in LAB)+530 μL of ATP (Sigma cat.no.A2383) (5.85 mg/ml stock in LAB)+1 ml luciferin reagent (Promega cat no.245355) (2 mg/ml stock in LAB, protect from light)}.
The luminescence was immediately read on polar star. The values were expressed as percentage inhibition, in terms of treated values to that STAT3 (induction control). IC50 values were calculated from graphs using these percentages.

OVCAR 3 = assay: Cytotoxicity assay (propidium iodide), OVCAR 3; type: cell-based; details: Homo sapiens; OVCAR 3 (C3c, ovarian); 48 hours
Description: (§1) Cells from cell lines as mentioned in the table given below were seeded at a density of 3000 cells/well in a white opaque 96-well plate. Following incubation at 37° C./5% CO2 for a period of 18-24 hours, the cells were treated with various concentrations (stock solution was prepared in DMSO and subsequent dilutions were made in media as per ATCC guidelines) of the representative compounds of present invention (refer table 3) for a period of 48 hours. At the end of treatment, the spent culture medium was discarded, the cells were washed with 1×PBS and 200 μl of 7 μg/ml propidium iodide was added to each well. The plates were frozen at −70° C. for at least 24 hours. For analysis, the plates were brought to RT, allowed to thaw and were read in PolarStar fluorimeter with the fluorescence setting. The percentage of viable cells in the non treated set of wells was considered to be 100 and the percentage viability following treatment was calculated accordingly. IC50 values were calculated from graphs plotted using these percentages.

H460 = assay: Cytotoxicity assay (propidium iodide), H460; type: cell-based; details: Homo sapiens, NCI-H460; H460 (C1b, lung); 48 hours
A2780 = assay: Cytotoxicity assay (propidium iodide), A2780; type: cell-based; details: Homo sapiens; A2780 (C3a, ovarian); 48 hours
HCT116 = assay: Cytotoxicity assay (propidium iodide), HCT116; type: cell-based; details: Homo sapiens, HCT-116; HCT116 (C4b, colon); 48 hours
Description: as §1

A549 = assay: Cytotoxicity assay (propidium iodide), A549; type: cell-based; details: Homo sapiens; A549 (C1a, lung); 48 hours
Description: as §1

PC3 = assay: Cytotoxicity assay (propidium iodide), PC3; details: Homo sapiens, PC-3, 48 h, read-out: IC50 cytotoxicity
Description: as §1

TNF-α = assay: Human monocyte assay, LPS-stimulated TNF-α; type: cell-based; details: human monocytes, 1 μg/ml LPS, 5 hours
Description: The assay was designed as in the reference, Physiol.
Peripheral blood mononuclear cells (hPBMC) were harvested from human blood and suspended in RPMI 1640 culture medium containing 10% FCS, 100 U/mL penicillin and […] streptomycin (assay medium). Monocytes in the hPBMCs were counted using a Coulter Counter following which the cells were resuspended at 2×10^5 monocytes/mL. A cell suspension containing 2×10^4 monocytes was aliquoted per well of a 96-well plate. Subsequently, the hPBMCs were incubated for 4-5 hours at 37° C., 5% CO2 (During the incubation, the monocytes adhered to the bottom of 96-well plastic culture plate). Following the incubation, the non-adherent lymphocytes were washed with assay medium and the adherent monocytes re-fed with assay medium. After a 48-hour incubation period (37° C., 5% CO2), monocytes were pretreated with various concentrations of representative compounds of present invention (refer to table 6 and 7) (prepared in DMSO) or vehicle (0.5% DMSO) for 30 minutes and stimulated with 1 μg/ml LPS (Escherchia coli 0111:B4, Sigma Chemical Co., St. Louis, Mo.). The incubation was continued for 5 hours at 37° C., 5% CO2. Supernatants were harvested, assayed for IL-6 and TNF-α by ELISA as described by the manufacturer (BD Biosciences, USA). Dexamethasone (10 μM) was used as standard for this assay. […] Biological results for both IL-6 and TNFα are indicated in Table 6 and Table 7 respectively.

T1 sequence (P42336 whole entry): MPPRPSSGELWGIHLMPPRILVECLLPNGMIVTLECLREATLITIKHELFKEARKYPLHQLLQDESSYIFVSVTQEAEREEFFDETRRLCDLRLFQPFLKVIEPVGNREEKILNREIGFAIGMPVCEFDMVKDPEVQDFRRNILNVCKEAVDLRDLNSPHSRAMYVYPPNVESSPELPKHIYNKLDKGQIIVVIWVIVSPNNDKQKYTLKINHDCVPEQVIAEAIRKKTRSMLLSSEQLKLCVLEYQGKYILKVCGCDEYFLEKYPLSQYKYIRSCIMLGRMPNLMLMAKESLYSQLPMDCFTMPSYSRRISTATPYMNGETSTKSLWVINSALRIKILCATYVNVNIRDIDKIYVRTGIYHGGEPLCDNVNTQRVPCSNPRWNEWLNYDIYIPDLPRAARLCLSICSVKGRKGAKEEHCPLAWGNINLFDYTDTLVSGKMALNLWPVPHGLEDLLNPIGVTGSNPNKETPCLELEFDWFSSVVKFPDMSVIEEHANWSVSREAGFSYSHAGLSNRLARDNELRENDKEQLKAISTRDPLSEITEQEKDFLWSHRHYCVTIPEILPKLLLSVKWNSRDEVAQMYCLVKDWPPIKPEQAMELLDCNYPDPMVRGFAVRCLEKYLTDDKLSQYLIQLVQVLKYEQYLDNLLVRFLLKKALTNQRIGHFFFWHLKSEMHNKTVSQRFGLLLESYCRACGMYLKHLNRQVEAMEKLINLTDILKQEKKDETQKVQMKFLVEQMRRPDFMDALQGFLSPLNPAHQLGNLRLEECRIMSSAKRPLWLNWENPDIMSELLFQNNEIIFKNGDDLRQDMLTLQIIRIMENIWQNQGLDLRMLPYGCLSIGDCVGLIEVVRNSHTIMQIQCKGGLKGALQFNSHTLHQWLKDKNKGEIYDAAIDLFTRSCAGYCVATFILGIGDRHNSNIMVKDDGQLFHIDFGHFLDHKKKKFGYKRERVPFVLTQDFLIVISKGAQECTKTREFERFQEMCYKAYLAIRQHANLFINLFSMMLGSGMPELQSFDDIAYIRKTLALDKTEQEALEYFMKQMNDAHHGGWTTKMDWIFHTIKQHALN
T1 sequence (P27986 whole entry partner): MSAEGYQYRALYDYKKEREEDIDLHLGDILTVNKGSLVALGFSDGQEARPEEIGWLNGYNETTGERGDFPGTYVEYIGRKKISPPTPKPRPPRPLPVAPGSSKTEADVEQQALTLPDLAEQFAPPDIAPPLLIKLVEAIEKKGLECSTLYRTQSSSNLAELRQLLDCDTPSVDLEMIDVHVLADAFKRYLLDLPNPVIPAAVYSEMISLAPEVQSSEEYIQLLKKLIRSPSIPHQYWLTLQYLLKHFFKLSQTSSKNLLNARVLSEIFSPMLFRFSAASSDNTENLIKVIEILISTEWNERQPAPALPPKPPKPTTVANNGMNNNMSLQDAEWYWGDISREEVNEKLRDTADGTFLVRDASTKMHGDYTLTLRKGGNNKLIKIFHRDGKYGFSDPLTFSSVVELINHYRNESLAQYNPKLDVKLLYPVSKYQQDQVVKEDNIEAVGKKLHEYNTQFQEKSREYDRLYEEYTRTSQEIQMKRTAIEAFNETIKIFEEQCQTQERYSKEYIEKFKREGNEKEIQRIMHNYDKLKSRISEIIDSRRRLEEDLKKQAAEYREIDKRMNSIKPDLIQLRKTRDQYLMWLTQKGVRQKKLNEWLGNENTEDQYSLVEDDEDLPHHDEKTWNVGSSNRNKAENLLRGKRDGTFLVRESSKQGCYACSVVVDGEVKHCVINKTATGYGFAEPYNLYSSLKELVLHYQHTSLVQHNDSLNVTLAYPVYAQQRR

| Compound | IC50 (PI3Kα kinase) | inhibition at 1 µM (mTOR) | IC50 (IL-6) | IC50 (H460) | IC50 (A2780) | IC50 (A549) | other results |
| --- | --- | --- | --- | --- | --- | --- | --- |
| CN(N=Cc1cnc2ccc(-c3cccnc3)cn12)S(=O)(=O)c1ccc(F)c(F)c1 [Example 15, 3,4-difluoro-N-methyl-N′-((6-(pyridine-3-yl)imidazo[1,2-a]pyridine-3-yl)methylene) benzenesulfonohydrazide] | 0.5 to 1 µM | 30 to 50% |  |  |  |  | IC50 (STAT3): 100 to 5000 nM |
| Cc1ccc(S(=O)(=O)N(C)N=Cc2cnc3ccc(-c4cccnc4)cn23)cc1 [Example 3, N, 4-dimethyl-N′-((6-(pyridine-3-yl)imidazo[1,2-a]pyridine-3-yl)methylene) benzenesulfonohydrazide] |  |  | ≥ 5 µM | 10 to 5000 nM | 10 to 5000 nM | 10 to 5000 nM | IC50 (OVCAR 3): 10 to 5000 nM; IC50 (HCT116): 10 to 5000 nM; IC50 (PC3): 10 to 5000 nM |
| COc1ccc(S(=O)(=O)N(C)N=Cc2cnc3ccc(-c4cccnc4)cn23)cc1 [Example 12, 4-Methoxy-N-methyl-N′-((6-(pyridine-3-yl)imidazo[1,2-a]pyridine-3-yl)methylene)benzenesulfonohydrazide] |  |  |  | 10 to 5000 nM | 10 to 5000 nM | 10 to 5000 nM | IC50 (OVCAR 3): 10 to 5000 nM; IC50 (HCT116): 10 to 5000 nM; IC50 (PC3): 10 to 5000 nM |
| CN(N=Cc1cnc2ccc(-c3cccnc3)cn12)S(=O)(=O)c1ccc(Br)cc1 [Example 8, 4-Bromo-N-methyl-N′-((6-(pyridine-3-yl)imidazo[1,2-a]pyridine-3-yl)methylene)benzenesulfonohydrazide] |  | 30 to 50% |  |  |  |  | IC50 (STAT3): 100 to 5000 nM |
| CN(N=Cc1cnc2ccc(-c3cccnc3)cn12)S(=O)(=O)c1cccs1 [Example 29, N-methyl-N′-((6-(pyridine-3-yl)imidazo[1,2-a]pyridine-3-yl)methylene) thiophene-2-sulfonohydrazide] |  |  |  | 10 to 5000 nM | 10 to 5000 nM | 10 to 5000 nM | IC50 (OVCAR 3): 10 to 5000 nM; IC50 (HCT116): 10 to 5000 nM; IC50 (PC3): 10 to 5000 nM |

More lines, main results first:

| IC50 (PI3Kα kinase) | inhibition at 1 µM (mTOR) | IC50 (IL-6) | Compound | IC50 (H460) | IC50 (A2780) | IC50 (A549) | other results |
| --- | --- | --- | --- | --- | --- | --- | --- |
| 0.01 to 0.5 µM | 30 to 50% | 0.001 to 5 µM | CCN(/N=C/c1cnc2ccc(-c3cccnc3)cn12)S(=O)(=O)c1cc([N+](=O)[O-])ccc1C [Example 84] |  |  |  |  |
|  |  | 0.001 to 5 µM | Cc1cc(-c2cccnc2)cn2c(/C=N/N(C)S(=O)(=O)c3ccc(F)c(C#N)c3)cnc12 [Example 105, (E)-3-cyano-4-fluoro-N-methyl-N′-((8-methyl-6-(pyridin-3-yl)imidazo[1,2-a]pyridin-3-yl)methylene)benzenesulfonohydrazide] |  |  |  | IC50 (TNF-α): 1 to 1000 nM |
| 0.01 to 0.5 µM | 30 to 50% | 0.001 to 5 µM | CN(N=Cc1cnc2ccc(-c3cccnc3)cn12)S(=O)(=O)c1cccc(Cl)c1F [Example 17, 3-Chloro-2-fluoro-N-methyl-N′-((6-(pyridine-3-yl)imidazo[1,2-a]pyridine-3-yl)methylene) benzenesulfonohydrazide] |  |  |  |  |
| 0.01 to 0.5 µM | 30 to 50% | 0.001 to 5 µM | CN(N=Cc1cnc2ccc(-c3cccnc3)cn12)S(=O)(=O)c1cc(C(F)(F)F)cc(C(F)(F)F)c1 [Example 23, N-methyl-N′-((6-(pyridine-3-yl)imidazo[1,2-a]pyridine-3-yl)methylene)-3,5-bis(trifluoromethyl)benzenesulfonohydrazide] | 10 to 5000 nM | 10 to 5000 nM | 10 to 5000 nM |  |
| 0.01 to 0.5 µM |  | ≥ 5 µM | Cc1ccc(F)cc1S(=O)(=O)N(C)/N=C/c1cnc2ccc(-c3cc4ccccc4[nH]3)cn12 [Example 115, (E)-N′-((6-(1H-indol-2-yl)imidazo[1,2-a]pyridin-3-yl)methylene)-5-fluoro-N,2-dimethylbenzenesulfonohydrazide] |  |  |  | IC50 (STAT3): 5000 to 10000 nM; IC50 (mTOR): 5000 to 10000 nM |
|  |  | 0.001 to 5 µM | COc1ccc(F)cc1S(=O)(=O)N(C)/N=C/c1cnc2ccc(-c3cccnc3)cn12 [Example 45, (E)-5-fluoro-2-methoxy-N-methyl-N′-((6-(pyridin-3-yl)imidazo[1,2-a]pyridin-3-yl)methylene)benzenesulfonohydrazide] | 10 to 5000 nM |  | 10 to 5000 nM | IC50 (TNF-α): 1 to 1000 nM |
